Assay results reported in the NIST ThermoML archive (doi:10.1021/je034102r).
± gives the expanded uncertainty stated by the source.

Experiment: molar heat capacity at constant pressure
Details: 101.33 kPa, Liquid, heat bridge-scanning calorimeter

Compound: CCCCn1cc[n+](C)c1.F[P-](F)(F)(F)(F)F [1-butyl-3-methylimidazolium hexafluorophosphate]
- molar heat capacity at constant pressure (367.22 K): 449.29 ± 9.1 J/K/mol
- molar heat capacity at constant pressure (367.34 K): 449.58 ± 9.1 J/K/mol
- molar heat capacity at constant pressure (367.47 K): 449.86 ± 9.1 J/K/mol
- molar heat capacity at constant pressure (367.59 K): 449.86 ± 9.1 J/K/mol
- molar heat capacity at constant pressure (367.72 K): 449.86 ± 9.1 J/K/mol
- molar heat capacity at constant pressure (367.84 K): 449.86 ± 9.1 J/K/mol
- molar heat capacity at constant pressure (367.97 K): 449.86 ± 9.1 J/K/mol
- molar heat capacity at constant pressure (368.1 K): 450.43 ± 9.1 J/K/mol
- molar heat capacity at constant pressure (368.38 K): 450.14 ± 9.1 J/K/mol
- molar heat capacity at constant pressure (368.51 K): 450.43 ± 9.1 J/K/mol
- molar heat capacity at constant pressure (368.63 K): 450.43 ± 9.1 J/K/mol
- molar heat capacity at constant pressure (368.76 K): 450.43 ± 9.1 J/K/mol
- molar heat capacity at constant pressure (368.88 K): 450.43 ± 9.1 J/K/mol
- molar heat capacity at constant pressure (369.02 K): 450.43 ± 9.1 J/K/mol
- molar heat capacity at constant pressure (369.15 K): 450.43 ± 9.1 J/K/mol
- molar heat capacity at constant pressure (369.27 K): 450.43 ± 9.1 J/K/mol
- molar heat capacity at constant pressure (369.4 K): 450.71 ± 9.1 J/K/mol
- molar heat capacity at constant pressure (369.53 K): 450.71 ± 9.1 J/K/mol
- molar heat capacity at constant pressure (369.65 K): 450.71 ± 9.1 J/K/mol
- molar heat capacity at constant pressure (369.92 K): 452.13 ± 9.1 J/K/mol
- molar heat capacity at constant pressure (370.05 K): 452.13 ± 9.1 J/K/mol
- molar heat capacity at constant pressure (370.17 K): 451.85 ± 9.1 J/K/mol
- molar heat capacity at constant pressure (370.3 K): 451.28 ± 9.1 J/K/mol
- molar heat capacity at constant pressure (370.43 K): 451.57 ± 9.1 J/K/mol
- molar heat capacity at constant pressure (370.55 K): 451.28 ± 9.1 J/K/mol
- molar heat capacity at constant pressure (370.68 K): 451.28 ± 9.1 J/K/mol
- molar heat capacity at constant pressure (370.8 K): 451.57 ± 9.1 J/K/mol
- molar heat capacity at constant pressure (370.93 K): 451.57 ± 9.1 J/K/mol
- molar heat capacity at constant pressure (371.21 K): 451.85 ± 9.1 J/K/mol
- molar heat capacity at constant pressure (371.34 K): 452.13 ± 9.1 J/K/mol
- molar heat capacity at constant pressure (371.47 K): 452.13 ± 9.1 J/K/mol
- molar heat capacity at constant pressure (371.59 K): 451.85 ± 9.1 J/K/mol
- molar heat capacity at constant pressure (371.72 K): 452.13 ± 9.1 J/K/mol
- molar heat capacity at constant pressure (371.84 K): 451.85 ± 9.1 J/K/mol
- molar heat capacity at constant pressure (371.97 K): 452.13 ± 9.1 J/K/mol
- molar heat capacity at constant pressure (372.09 K): 452.13 ± 9.1 J/K/mol
- molar heat capacity at constant pressure (372.22 K): 452.13 ± 9.1 J/K/mol
- molar heat capacity at constant pressure (372.35 K): 452.13 ± 9.1 J/K/mol
- molar heat capacity at constant pressure (372.47 K): 452.7 ± 9.1 J/K/mol
- molar heat capacity at constant pressure (372.74 K): 452.99 ± 9.1 J/K/mol
- molar heat capacity at constant pressure (372.87 K): 452.7 ± 9.1 J/K/mol
- molar heat capacity at constant pressure (372.99 K): 452.7 ± 9.1 J/K/mol
- molar heat capacity at constant pressure (373.12 K): 452.7 ± 9.1 J/K/mol
- molar heat capacity at constant pressure (373.25 K): 452.99 ± 9.1 J/K/mol
- molar heat capacity at constant pressure (373.37 K): 453.56 ± 9.1 J/K/mol
- molar heat capacity at constant pressure (373.5 K): 453.84 ± 9.1 J/K/mol
- molar heat capacity at constant pressure (373.62 K): 453.56 ± 9.1 J/K/mol
- molar heat capacity at constant pressure (373.75 K): 452.7 ± 9.1 J/K/mol
- molar heat capacity at constant pressure (374.03 K): 453.27 ± 9.1 J/K/mol
- molar heat capacity at constant pressure (374.16 K): 453.27 ± 9.1 J/K/mol
- molar heat capacity at constant pressure (374.29 K): 453.27 ± 9.1 J/K/mol
- molar heat capacity at constant pressure (374.41 K): 453.27 ± 9.1 J/K/mol
- molar heat capacity at constant pressure (374.54 K): 454.41 ± 9.1 J/K/mol
- molar heat capacity at constant pressure (374.67 K): 455.26 ± 9.1 J/K/mol
- molar heat capacity at constant pressure (374.79 K): 454.69 ± 9.1 J/K/mol
- molar heat capacity at constant pressure (374.92 K): 454.69 ± 9.1 J/K/mol
- molar heat capacity at constant pressure (375.06 K): 454.69 ± 9.1 J/K/mol
- molar heat capacity at constant pressure (375.18 K): 454.41 ± 9.1 J/K/mol
- molar heat capacity at constant pressure (375.31 K): 454.12 ± 9.1 J/K/mol
- molar heat capacity at constant pressure (375.58 K): 453.84 ± 9.1 J/K/mol
- molar heat capacity at constant pressure (375.71 K): 453.84 ± 9.1 J/K/mol
- molar heat capacity at constant pressure (375.83 K): 453.56 ± 9.1 J/K/mol
- molar heat capacity at constant pressure (375.96 K): 453.84 ± 9.1 J/K/mol
- molar heat capacity at constant pressure (376.09 K): 454.69 ± 9.1 J/K/mol
- molar heat capacity at constant pressure (376.21 K): 455.83 ± 9.1 J/K/mol
- molar heat capacity at constant pressure (376.34 K): 455.83 ± 9.1 J/K/mol
- molar heat capacity at constant pressure (376.46 K): 455.54 ± 9.1 J/K/mol
- molar heat capacity at constant pressure (376.59 K): 454.98 ± 9.1 J/K/mol
- molar heat capacity at constant pressure (376.87 K): 454.41 ± 9.1 J/K/mol
- molar heat capacity at constant pressure (376.99 K): 454.41 ± 9.1 J/K/mol
- molar heat capacity at constant pressure (377.12 K): 454.41 ± 9.1 J/K/mol
- molar heat capacity at constant pressure (377.25 K): 454.98 ± 9.1 J/K/mol
- molar heat capacity at constant pressure (377.37 K): 455.26 ± 9.1 J/K/mol
- molar heat capacity at constant pressure (377.5 K): 454.98 ± 9.1 J/K/mol
- molar heat capacity at constant pressure (377.63 K): 454.69 ± 9.1 J/K/mol
- molar heat capacity at constant pressure (377.75 K): 454.69 ± 9.1 J/K/mol
- molar heat capacity at constant pressure (377.88 K): 454.98 ± 9.1 J/K/mol
- molar heat capacity at constant pressure (378 K): 455.26 ± 9.1 J/K/mol
- molar heat capacity at constant pressure (378.13 K): 455.54 ± 9.1 J/K/mol
- molar heat capacity at constant pressure (378.4 K): 455.54 ± 9.1 J/K/mol
- molar heat capacity at constant pressure (378.53 K): 455.26 ± 9.1 J/K/mol
- molar heat capacity at constant pressure (378.65 K): 455.54 ± 9.1 J/K/mol
- molar heat capacity at constant pressure (378.78 K): 455.54 ± 9.1 J/K/mol
- molar heat capacity at constant pressure (378.91 K): 455.54 ± 9.1 J/K/mol
- molar heat capacity at constant pressure (379.03 K): 455.54 ± 9.1 J/K/mol
- molar heat capacity at constant pressure (379.16 K): 455.83 ± 9.1 J/K/mol
- molar heat capacity at constant pressure (379.29 K): 456.11 ± 9.1 J/K/mol
- molar heat capacity at constant pressure (379.41 K): 457.53 ± 9.1 J/K/mol
- molar heat capacity at constant pressure (379.7 K): 456.11 ± 9.1 J/K/mol
- molar heat capacity at constant pressure (379.83 K): 456.11 ± 9.1 J/K/mol
- molar heat capacity at constant pressure (379.95 K): 456.4 ± 9.1 J/K/mol
- molar heat capacity at constant pressure (380.08 K): 456.68 ± 9.1 J/K/mol
- molar heat capacity at constant pressure (380.21 K): 456.68 ± 9.1 J/K/mol
- molar heat capacity at constant pressure (380.33 K): 456.68 ± 9.1 J/K/mol
- molar heat capacity at constant pressure (380.46 K): 456.68 ± 9.1 J/K/mol
- molar heat capacity at constant pressure (380.59 K): 456.68 ± 9.1 J/K/mol
